We go through 15 compounds from patent publication US4457932A, “Anti-ulcer agents” (Bristol-Myers Company, priority 1983, dated 1984).

Assay [1] has as its system ethanol-induced gastric ulcers (lesions). The assay can be described thus: Ethanol-induced ulcer model in the rat. The class given is in vivo, Adult male Long-Evans rats. Conditions: for inhibition in vivo at 30 mg/kg: 30 mg/kg p.o.; for inhibition in vivo at 50 mg/kg: 50 mg/kg p.o. The procedure:
The effectiveness of the compounds of Formula I as cytoprotective agents was determined by an ethanol-induced ulcer model in the rat. This model is a modification of the procedure described by A. Robert in Scand. J. Gastroenterology 16: (Suppl. 67): 243 (1981). This model which screens for cytoprotective compounds is based on the ability of 100% ethanol to produce gastric ulcers (primarily in the fundic region of the stomach) in rats in a dose-related manner. Further details of the model are described below.
Adult male Long-Evans rats weighing 275-300 grams (Blue Spruce Farm, Alton, N.Y.) are used. Animals are housed individually in stainless steel cages with wire-mesh bottoms. The housing battery is arranged into six groups of five each, individually numbered from rat number 1, group 1 to rat number 5, group 6. Food and water are removed 24 and 18 hours, respectively, prior to testing. On the following day animals receive the test compound either p.o., s.c. or i.p. 30 minutes or more before administration of 100% ethanol (3.0 ml/kg) by gavage. Sixty minutes later the animals are sacrificed by administration of T-61 (Hoechst), 0.2 ml i.p.
An abdominal incision is made and, after clamping the esophagus just above the esophageal sphincter with tweezers, the stomach is carefully lifted from the abdominal cavity. Two cuts are made approximately 1/2" below the pyloric valve and 1/2" above the esophageal sphincter, and the stomach removed and set aside. This step is very rapid (2-3 seconds) and no loss of gastric contents is apparent. The size of the stomach including contents is noted as small, medium or large. Stomachs are cut open along the lesser curvature and the contents expressed into graduated centrifuge tubes.
Under these conditions, ethanol produces prominent macroscopic lesions in the corpus, but gross macroscopic changes are only very rarely observed in the forestomach. […] In addition, absence of the forestomach allows the remaining stomach to lie flat on a surface for photography and examination without undue stretching of the tissue. For these reasons, the forestomach (along with nongastric tissue) is removed.
The remaining corpus and antrum are rinsed in water and placed flat in a standard position. The tissue is photographed with a Polaroid close-up camera and scoring of lesions is done from this permanent record. Each photograph includes a reference scale in mm. Two scoring systems are used. For screening purposes each stomach is graded on a scale of 0 to 3 as described below:
Where more precise data are needed, e,g, in determining the ED50 for a compound, the total lesion area in mm is measured. Barely visible spots (petechiae) are scored as 1 mm each. For each treatment group, an average score is calculated. From this, the percent inhibition of lesion formation, I, is calculated as:
I=Lesion Score (controls)-Lesion Score(treated)X 100 Lesion Score(controls)
In dose-response studies, the ED50 (dose at which 50% inhibition of lesion formation occurs) is determined by probit analysis according to Finney.

Assay [2] concerns HCl-induced gastric lesions. The assay can be described thus: HCl-induced gastric lesions in the rat. To be noted: po, read-out: ED50 against HCl-induced gastric lesions. The class given is in vivo.
Assay [3] deals with aspirin-stress gastric ulcer. In words: Aspirin-stress gastric ulcer model in rats. The format is in vivo. To be noted: 100 mg/kg p.o. The protocol:
(§1) The compound of Formula I wherein R^4 is methyl and R^1, R^2 and R^3 are each hydrogen was also tested in several other ulcer models. […] The results in the above models are probably indicative of the lack of significant anti-secretory activity in the compound of the present invention.

For assay [4], the system named is cysteamine-induced duodenal ulcer. In words: Cysteamine-induced duodenal ulcer model in rats. The format is in vivo. To be noted: dosed seven times over 30 hours (40 mg/kg, p.o.). The procedure: as §1
For the next assay, the system named is gastric secretion. The assay can be described thus: Gastric secretion in the conscious gastric fistula rat. The format is in vivo. Conditions: oral, read-out: oral ED50, block of gastric secretion. The procedure:
as §1

The mark [5] stands for this setting: po, rat, read-out: Antiulcer Activity, % Inhibition (of lesion formation).

Where two headings read alike, the source gives them in different places.

Take `O=c1c(-c2nnn[nH]2)cnc2ccc(Cl)cn12`: in assay [1] (po, 12.6 mg/kg p.o., rat, read-out: Antiulcer Activity, % Inhibition (of lesion formation)), the inhibition in vivo at 12.6 mg/kg turned out to be 93%. `O=c1c(-c2nnn[nH]2)cnc2c3c(ccn12)CCCC3`: in assay [1] (setting [5]), the inhibition in vivo at 30 mg/kg turned out to be 68%. On the same count and under the same terms, then `Cc1cccc2ncc(-c3nnn[nH]3)c(=O)n12`, with 75%. Take `Cc1ccc2ncc(-c3nnn[nH]3)c(=O)n2c1`: the inhibition in vivo at 30 mg/kg in assay [1] (setting [5]) was 79%. As for `CCCCc1ccc2ncc(-c3nnn[nH]3)c(=O)n2c1`, in assay [1] (setting [5]), the inhibition in vivo at 30 mg/kg turned out to be 54%. On to `Cc1cc(C)c2ncc(-c3nnn[nH]3)c(=O)n2c1`, for which the inhibition in vivo at 30 mg/kg in assay [1] (setting [5]) is 92%. On to `Cc1ccn2c(=O)c(-c3nnn[nH]3)cnc2c1`, for which the inhibition in vivo at 30 mg/kg in assay [1] (setting [5]) is 70%. As for `CCc1cccn2c(=O)c(-c3nnn[nH]3)cnc12`, the inhibition in vivo at 50 mg/kg in assay [1] (setting [5]) worked out at 96%. As to `CCCc1cccn2c(=O)c(-c3nnn[nH]3)cnc12`, in assay [1] (setting [5]), the inhibition in vivo at 30 mg/kg is 77%. As for `CCCCc1cccn2c(=O)c(-c3nnn[nH]3)cnc12`, the inhibition in vivo at 50 mg/kg in assay [1] (setting [5]) amounted to 41%.

Usually ED50 stands for the dose at which the effect has come halfway, by size or by number of responders. On to `Cc1cccn2c(=O)c(-c3nnn[nH]3)cnc12`, for which the ED50 in assay [2] amounted to 20.8 mg/kg; with gastric secretion, 27 mg/kg. Also, the “activity in aspirin-stress gastric ulcer model” value in assay [3] was “inactive”. Also, in assay [4], the “activity in cysteamine-induced duodenal ulcer model” value is “inactive”. Regarding `CN/C(=N/CCSCc1nc[nH]c1C)NC#N` [Cimetidine, reference compound], the 50% effect level in assay [1] (Rattus norvegicus) (ED50) was put at a dose of 235 mg/kg.

As to `CCCCC[C@H](O)/C=C/[C@H]1[C@H](O)CC(=O)[C@@H]1C/C=C\CCCC(=O)O` [PGE2, reference compound], the ED50 in assay [1] (oral, rat, read-out: oral ED50) turned out to be 0.024 mg/kg. For the compound `Cc1cccn2c(=O)c(-c3nnn[nH]3)cnc12` [drawing 30], in assay [1] (setting [5]), the inhibition in vivo at 30 mg/kg came out at 88%. Besides, the median effective dose (ED50) in assay [1] (po, rat, table footnote, read-out: ED50 (dose at which 50% inhibition of lesion formation occurs)) was determined as 0.3 mg/kg.

Take sucralfate [reference compound]: the “oral ED50” value in assay [1] (oral, rat) is reported as 21 mg/kg.
